Measured values taken from ChEMBL document CHEMBL3885861, “Open TG-GATES”.

Species: Rattus norvegicus
Experiment: Open TG-GATES - Regimen: Daily Repeat
Type: toxicity, organism-based, Sprague-Dawley
Set-up: regimen Daily Repeat, gender Male, age 6 weeks
Settings: in vivo, po, route gavage; for APTT / Bas / Eos / Fbg / Hb / Ht / Lym / MCH / MCHC / MCV / Mono / Neu / PT / Plat / RBC / Ret / WBC: tissue Blood; for KIDNEY_L / KIDNEY_R / KIDNEY_TOTAL: tissue Kidney; for LIVER: tissue Liver; for A/G / ALP / ALT / AST / BUN / CRE / Ca / Cl / DBIL / GLC / IP / K / LDH / Na / PL / RALB / TBIL / TC / TG / TP / gamma-GTP: tissue Plasma
[1] = 1 mg/kg, […], dose level Middle, time 14 day
[2] = 1 mg/kg, […], dose level Middle, time 28 day
[3] = 1 mg/kg, […], dose level Middle, time 7 day
[4] = 3 mg/kg, 72 h, dose level High, time 3 day
[5] = 3 mg/kg, […], dose level High, time 7 day
[6] = 3 mg/kg, […], dose level High, time 14 day

CN1C(C(=O)Nc2ccccn2)=C(O)c2sc(Cl)cc2S1(=O)=O [LORNOXICAM]
TERMINAL_BW [1]: 307.1 g
TERMINAL_BW [2]: 392.3 g
APTT [3]: 18.4 s
Bas [3]: 0.8%
Eos [3]: 1%
Fbg [3]: 239.8 mg/dL
Hb [3]: 12.9 g/dL
Ht [3]: 38.3%
Lym [3]: 71.6%
MCH [3]: 20.9 pg
MCHC [3]: 33.6%
MCV [3]: 62.1 fL
Mono [3]: 2.8%
Neu [3]: 23.6%
PT [3]: 11.5 s
Plat [3]: 139.1 x10_4/uL
RBC [3]: 617 x10_4/ul
Ret [3]: 5.7%
WBC [3]: 135.6 x10_2/uL
APTT [1]: 20.3 s
Bas [1]: 0.8%
Eos [1]: 0.8%
Fbg [1]: 291.6 mg/dL
Hb [1]: 12.9 g/dL
Ht [1]: 38.8%
Lym [1]: 62.2%
MCH [1]: 19.8 pg
MCHC [1]: 33%
MCV [1]: 59.9 fL
Mono [1]: 3.8%
Neu [1]: 31.8%
PT [1]: 11.4 s
Plat [1]: 151.7 x10_4/uL
RBC [1]: 648 x10_4/ul
Ret [1]: 5.7%
WBC [1]: 137.4 x10_2/uL
APTT [2]: 18.9 s
Bas [2]: 0.8%
Eos [2]: 1%
Fbg [2]: 247.2 mg/dL
Hb [2]: 15.2 g/dL
Ht [2]: 44.2%
Lym [2]: 71%
MCH [2]: 19.6 pg
MCHC [2]: 34.2%
MCV [2]: 57.1 fL
Mono [2]: 2.5%
Neu [2]: 24%
PT [2]: 11.7 s
Plat [2]: 115.1 x10_4/uL
RBC [2]: 775.8 x10_4/ul
Ret [2]: 2.8%
WBC [2]: 161.4 x10_2/uL
KIDNEY_L [3]: 1.3 g
KIDNEY_R [3]: 1.3 g
KIDNEY_TOTAL [3]: 2.6 g
KIDNEY_L [1]: 1.5 g
KIDNEY_R [1]: 1.4 g
KIDNEY_TOTAL [1]: 2.9 g
KIDNEY_L [2]: 1.5 g
KIDNEY_R [2]: 1.5 g
KIDNEY_TOTAL [2]: 3.1 g
LIVER [3]: 12.7 g
LIVER [1]: 12.3 g
LIVER [2]: 15.1 g
A/G [3]: 1.4
ALP [3]: 831.8 IU/L
ALT [3]: 41.6 IU/L
AST [3]: 75.6 IU/L
BUN [3]: 13.4 mg/dL
CRE [3]: 0.4 mg/dL
Ca [3]: 10.6 mg/dL
Cl [3]: 104 meq/L
DBIL [3]: 0.086 mg/dL
GLC [3]: 194 mg/dL
IP [3]: 7.4 mg/dL
K [3]: 4.1 meq/L
LDH [3]: 210.2 IU/L
Na [3]: 141.2 meq/L
PL [3]: 136 mg/dL
RALB [3]: 3.2 g/dL
TBIL [3]: 0.1 mg/dL
TC [3]: 70.6 mg/dL
TG [3]: 93 mg/dL
TP [3]: 5.5 g/dL
gamma-GTP [3]: 1.2 IU/L
A/G [1]: 1.2
ALP [1]: 815.8 IU/L
ALT [1]: 31.6 IU/L
AST [1]: 79 IU/L
BUN [1]: 21.8 mg/dL
CRE [1]: 0.5 mg/dL
Ca [1]: 10.3 mg/dL
Cl [1]: 104.6 meq/L
DBIL [1]: 0.086 mg/dL
GLC [1]: 189.6 mg/dL
IP [1]: 7.1 mg/dL
K [1]: 4 meq/L
LDH [1]: 225 IU/L
Na [1]: 141.8 meq/L
PL [1]: 131.2 mg/dL
RALB [1]: 2.9 g/dL
TBIL [1]: 0.1 mg/dL
TC [1]: 65.6 mg/dL
TG [1]: 106.2 mg/dL
TP [1]: 5.3 g/dL
gamma-GTP [1]: 2 IU/L
A/G [2]: 1.3
ALP [2]: 589.2 IU/L
ALT [2]: 31.8 IU/L
AST [2]: 76.2 IU/L
BUN [2]: 19 mg/dL
CRE [2]: 0.5 mg/dL
Ca [2]: 10.2 mg/dL
Cl [2]: 104 meq/L
DBIL [2]: 0.0925 mg/dL
GLC [2]: 206.5 mg/dL
IP [2]: 6.3 mg/dL
K [2]: 3.8 meq/L
LDH [2]: 194.2 IU/L
Na [2]: 141.8 meq/L
PL [2]: 142.8 mg/dL
RALB [2]: 3.3 g/dL
TBIL [2]: 0.2 mg/dL
TC [2]: 69.8 mg/dL
TG [2]: 150.2 mg/dL
TP [2]: 5.8 g/dL
gamma-GTP [2]: 1.5 IU/L
TERMINAL_BW [4]: 235 g
APTT [4]: 18.3 s
Bas [4]: 0.8%
Eos [4]: 0.6%
Fbg [4]: 354.8 mg/dL
Hb [4]: 11.6 g/dL
Ht [4]: 35.4%
Lym [4]: 56.8%
MCH [4]: 20.5 pg
MCHC [4]: 32.9%
MCV [4]: 62.4 fL
Mono [4]: 6%
Neu [4]: 29.2%
PT [4]: 11.4 s
Plat [4]: 121.4 x10_4/uL
RBC [4]: 568.2 x10_4/ul
Ret [4]: 6.5%
WBC [4]: 164.3 x10_2/uL
KIDNEY_L [4]: 1.2 g
KIDNEY_R [4]: 1.1 g
KIDNEY_TOTAL [4]: 2.3 g
LIVER [4]: 12 g
A/G [4]: 0.9
ALP [4]: 648.6 IU/L
ALT [4]: 30 IU/L
AST [4]: 57.4 IU/L
BUN [4]: 12.4 mg/dL
CRE [4]: 0.4 mg/dL
Ca [4]: 10.5 mg/dL
Cl [4]: 103.8 meq/L
DBIL [4]: 0.07 mg/dL
GLC [4]: 194 mg/dL
IP [4]: 8 mg/dL
K [4]: 4.4 meq/L
LDH [4]: 163 IU/L
Na [4]: 140.8 meq/L
PL [4]: 142.8 mg/dL
RALB [4]: 2.4 g/dL
TBIL [4]: 0.1 mg/dL
TC [4]: 70.8 mg/dL
TG [4]: 131.6 mg/dL
TP [4]: 4.9 g/dL
gamma-GTP [4]: 1.4 IU/L
TERMINAL_BW [5]: 246.6 g
APTT [5]: 18 s
Bas [5]: 1%
Eos [5]: 1%
Fbg [5]: 362 mg/dL
Hb [5]: 10.9 g/dL
Ht [5]: 32.8%
Lym [5]: 56%
MCH [5]: 20.2 pg
MCHC [5]: 33.2%
MCV [5]: 61 fL
Mono [5]: 4.7%
Neu [5]: 36.3%
PT [5]: 11.1 s
Plat [5]: 232.1 x10_4/uL
RBC [5]: 537.7 x10_4/ul
Ret [5]: 6%
WBC [5]: 243.6 x10_2/uL
KIDNEY_L [5]: 1.2 g
KIDNEY_R [5]: 1.2 g
KIDNEY_TOTAL [5]: 2.3 g
LIVER [5]: 11.3 g
A/G [5]: 0.8
ALP [5]: 606 IU/L
ALT [5]: 23.7 IU/L
AST [5]: 58.3 IU/L
BUN [5]: 9 mg/dL
CRE [5]: 0.4 mg/dL
Ca [5]: 10.3 mg/dL
Cl [5]: 105.3 meq/L
DBIL [5]: 0.0567 mg/dL
GLC [5]: 176 mg/dL
IP [5]: 7.7 mg/dL
K [5]: 4.3 meq/L
LDH [5]: 206.7 IU/L
Na [5]: 141.3 meq/L
PL [5]: 147 mg/dL
RALB [5]: 2.4 g/dL
TBIL [5]: 0.1 mg/dL
TC [5]: 73.3 mg/dL
TG [5]: 114.7 mg/dL
TP [5]: 5.3 g/dL
gamma-GTP [5]: 2 IU/L
GLC [6]: 178 mg/dL
gamma-GTP [6]: 1 IU/L
